According to patent publication US20240360146A1, “BRUTON'S TYROSINE KINASE AND MUTANT DEGRADER, COMPOSITION AND APPLICATION THEREOF” (HANGZHOU HEALZEN THERAPEUTICS CO., LTD., priority 2021, published 2024):

molecular target: T1, BTK (Homo sapiens, UniProt Q06187); assay: BTK degradation activity test in Mino cells; type: cell-based; settings: 16 h incubation, Western blot or Elisa
T1 construct: endogenous in cells; host or cells: Mino cells
Outline: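 DC50 derived by curve fitting of BTK degradation rates versus untreated control across compound concentrations. Mino cells were exposed for 16 h; BTK levels in lysates, normalised via BCA protein, measured by Western blot or ELISA.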

T1 sequence (Q06187 whole entry): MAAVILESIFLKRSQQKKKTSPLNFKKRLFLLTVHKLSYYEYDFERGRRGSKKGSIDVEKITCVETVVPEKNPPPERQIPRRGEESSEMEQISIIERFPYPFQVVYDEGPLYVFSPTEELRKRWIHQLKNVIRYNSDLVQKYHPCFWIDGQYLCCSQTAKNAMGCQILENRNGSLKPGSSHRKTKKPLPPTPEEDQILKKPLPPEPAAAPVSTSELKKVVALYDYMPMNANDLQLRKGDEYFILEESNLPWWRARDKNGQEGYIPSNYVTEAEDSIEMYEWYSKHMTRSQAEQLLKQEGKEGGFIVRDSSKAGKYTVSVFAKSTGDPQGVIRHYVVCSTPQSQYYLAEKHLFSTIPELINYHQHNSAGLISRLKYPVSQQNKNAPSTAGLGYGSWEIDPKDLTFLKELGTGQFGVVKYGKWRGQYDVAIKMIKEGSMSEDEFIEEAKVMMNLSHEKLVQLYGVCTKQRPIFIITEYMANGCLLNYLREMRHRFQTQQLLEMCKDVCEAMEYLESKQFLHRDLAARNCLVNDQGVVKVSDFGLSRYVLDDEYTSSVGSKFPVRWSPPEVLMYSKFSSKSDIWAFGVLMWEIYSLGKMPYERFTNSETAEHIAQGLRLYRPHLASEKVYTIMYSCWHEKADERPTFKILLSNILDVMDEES

DC50 [nM]	SMILES
< 1	CN1C(=O)N(C2CCCN(c3nnc(C(N)=O)c(Nc4ccc(C5CCN(CC6CCN(c7ccc8c(c7)C(=O)N(C7CCC(=O)NC7=O)C8=O)CC6)CC5)cc4)n3)C2)CC12CC2 (centres unmarked) [Compound 068, 5-((4-(1-((1-(2-(2,6-dioxopiperidin-3-yl)-1,3-dioxoisoindol-5-yl)piperidin-4-yl)methyl)piperidin-4-yl)phenyl)amino)-3-(3-(4-methyl-5-oxo-4,6-diazaspirocyclo[2.4]heptan-6-yl)piperidin-1-yl)-1,2,4-triazin-6-carboxamide]
< 1	CN1C(=O)N(C2CCCN(c3nnc(C(N)=O)c(Nc4ccc(C5CCN(CC6CCN(c7ccc8c(c7)C(=O)N(C7CCC(=O)NC7=O)C8=O)CC6)CC5)cc4)n3)C2)CC12CCC2 (centres unmarked) [Compound 069, 5-((4-(1-((1-(2-(2,6-dioxopiperidin-3-yl)-1,3-dioxoisoindol-5-yl)piperidin-4-yl)methyl)piperidin-4-yl)phenyl)amino)-3-(3-(5-methyl-6-oxo-5,7-diazaspirocyclo[3.4]octan-7-yl)piperidin-1-yl)-1,2,4-triazin-6-carboxamide]
< 1	NC(=O)c1nnc(N2CCCC(N3CC4CCCN4C3=O)C2)nc1Nc1ccc(C2CCN(CC3CCN(c4ccc5c(c4)C(=O)N(C4CCC(=O)NC4=O)C5=O)CC3)CC2)cc1 (centres unmarked) [Compound 070, 5-((4-(1-((1-(2-(2,6-dioxopiperidin-3-yl)-1,3-dioxoisoindol-5-yl)piperidin-4-yl)methyl)piperidin-4-yl)phenyl)amino)-3-(3-(3-oxytrihydro-1H-pyrrolo[1,2-c]imidazol-2(3H)-yl)piperidin-1-yl)-1,2,4-triazin-6-carboxamide]
> 1	CN1CCN(C2CC3CC2N(c2nnc(C(N)=O)c(Nc4ccc(C5CCN(CC6CCN(c7ccc8c(c7)C(=O)N(C7CCC(=O)NC7=O)C8=O)CC6)CC5)cc4)n2)C3)C1=O (centres unmarked) [Compound 071, 5-((4-(1-((1-(2-(2,6-dioxopiperidin-3-yl)-1,3-dioxoisoindol-5-yl)piperidin-4-yl)methyl)piperidin-4-yl)phenyl)amino)-3-(6-(3-methyl-2-oxoimidazolin-1-yl)-2-azabicyclo[2.2.1]heptan-2-yl)-1,2,4-triazin-6-carboxamide]
< 1	NC(=O)c1nnc(N2CC3CC(N4CCN(C5CCCC5)C4=O)C2C3)nc1Nc1ccc(C2CCN(CC3CCN(c4ccc5c(c4)C(=O)N(C4CCC(=O)NC4=O)C5=O)CC3)CC2)cc1 (centres unmarked) [Compound 072, 3-(6-(3-cyclopentyl-2-oxoimidazolin-1-yl)-2-azabicyclo[2.2.1]heptan-2-yl)-5-((4-(1-((1-(2-(2,6-dioxopiperidin-3-yl)-1,3-dioxoisoindol-5-yl)piperidin-4-yl)methyl)piperidin-4-yl)phenyl)amino)-1,2,4-triazin-6-carboxamide]
< 1	NC(=O)c1nnc(N2CC3CC(N4CC5CCCN5C4=O)C2C3)nc1Nc1ccc(C2CCN(CC3CCN(c4ccc5c(c4)C(=O)N(C4CCC(=O)NC4=O)C5=O)CC3)CC2)cc1 (centres unmarked) [Compound 074, 5-((4-(1-((1-(2-(2,6-dioxopiperidin-3-yl)-1,3-dioxoisoindol-5-yl)piperidin-4-yl)methyl)piperidin-4-yl)phenyl)amino)-3-(6-(3-oxotetrahydro-1H-pyrrolo[1,2-c]imidazol-2(3H)-yl)-2-azabicyclo[2.2.1]heptan-2-yl)-1,2,4-triazin-6-carboxamide]
> 1	CN1CCN(C2CC3CCC2N(c2nnc(C(N)=O)c(Nc4ccc(C5CCN(CC6CCN(c7ccc8c(c7)C(=O)N(C7CCC(=O)NC7=O)C8=O)CC6)CC5)cc4)n2)C3)C1=O (centres unmarked) [Compound 075, 5-((4-(1-((1-(2-(2,6-dioxopiperidin-3-yl)-1,3-dioxoisoindol-5-yl)piperidin-4-yl)methyl)piperidin-4-yl)phenyl)amino)-3-(6-(3-methyl-2-oxoimidazolin-1-yl)-2-azabicyclo[2.2.2]octan-2-yl)-1,2,4-triazin-6-carboxamide]
< 1	CN1CCN(C2CCCN(c3nnc(C(N)=O)c(Nc4ccc(C5CCN(CC6CCN(c7ccc8c(c7)C(=O)N(C7CCC(=O)NC7=O)C8=O)C6)CC5)cc4)n3)C2)C1=O (centres unmarked) [Compound 076, 5-((4-(1-((1-(2-(2,6-dioxopiperidin-3-yl)-1,3-dioxoisooctyl-5-yl)pyrrolidin-3-yl)methyl)piperidin-4-yl)phenyl)amino)-3-(3-(3-methyl-2-oxoimidazolin-1-yl)piperidin-1-yl)-1,2,4-triazin-6-carboxamide]
< 1	CN1CCN(C2CCCN(c3nnc(C(N)=O)c(Nc4ccc(C5CCN(C6CN(c7ccc8c(c7)C(=O)N(C7CCC(=O)NC7=O)C8=O)C6)CC5)cc4)n3)C2)C1=O (centres unmarked) [Compound 077, 5-((4-(1-(1-(2-(2,6-dioxopiperidin-3-yl)-1,3-dioxoisoindol-5-yl)azetidin-3-yl)piperidin-4-yl)phenyl)amino)-3-(3-(3-methyl-2-oxoimidazolin-1-yl)piperidin-1-yl)-1,2,4-triazin-6-carboxamide]
< 1	CN1CCN(C2CCCN(c3nnc(C(N)=O)c(Nc4ccc(C5(C)CCN(C6CCN(c7ccc8c(c7)C(=O)N(C7CCC(=O)NC7=O)C8=O)CC6)CC5)cc4)n3)C2)C1=O (centres unmarked) [Compound 078, 5-((4-(1′-(2-(2,6-dioxopiperidin-3-yl)-1,3-dioxoisoindol-5-yl)-4-methyl-[1,4′-bipiperidin]-4-yl)phenyl)amino)-3-(3-(3-methyl-2-oxoimidazolidin-1-yl)piperidin-1-yl)-1,2,4-triazin-6-carboxamide]
< 1	CN1CCN(C2CCCN(c3nnc(C(N)=O)c(Nc4ccc(C5(C)CCN(C6CN(c7ccc8c(c7)C(=O)N(C7CCC(=O)NC7=O)C8=O)C6)CC5)cc4)n3)C2)C1=O (centres unmarked) [Compound 079, 5-((4-(1-(1-(2-(2,6-dioxopiperidin-3-yl)-1,3-dioxoisoindol-5-yl)azetidin-3-yl)-4-methylpiperidin-4-yl)phenyl)amino)-3-(3-(3-methyl-2-oxoimidazolin-1-yl)piperidin-1-yl)-1,2,4-triazin-6-carboxamide]
< 1	CN1CCN(C2CCCN(c3nnc(C(N)=O)c(Nc4ccc5c(c4)CCN(C4CN(c6ccc7c(c6)C(=O)N(C6CCC(=O)NC6=O)C7=O)C4)C5)n3)C2)C1=O (centres unmarked) [Compound 080]
< 1	CN1CCN(C2CCCN(c3nnc(C(N)=O)c(Nc4ccc5c(c4)CCN(CC4CCN(c6ccc7c(c6)C(=O)N(C6CCC(=O)NC6=O)C7=O)CC4)C5)n3)C2)C1=O (centres unmarked) [Compound 081, 5-((2-((1-(2-(2,6-dioxopiperidin-3-yl)-1,3-dioxoisoindol-5-yl)piperidin-4-yl)methyl)-1,2,3,4-tetrahydroisoquinolin-6-yl)amino)-3-(3-(3-methyl-2-oxoimidazolin-1-yl)piperidin-1-yl)-1,2,4-triazin-6-carboxamide]
< 1	CN1CCN(C2CCCN(c3nnc(C(N)=O)c(Nc4ccc(N5CCN(CC6CCN(c7ccc8c(c7)C(=O)N(C7CCC(=O)NC7=O)C8=O)CC6)CC5)cc4)n3)C2)C1=O (centres unmarked) [Compound 082, 5-((4-(4-((1-(2-(2,6-dioxopiperidin-3-yl)-1,3-dioxoisoindol-5-yl)piperidin-4-yl)methyl)piperazin-1-yl)phenyl)amino)-3-(3-(3-methyl-2-oxoimidazolin-1-yl)piperidin-1-yl)-1,2,4-triazin-6-carboxamide]
